Patent US6107549A, “Genetically engineered plant resistance to thiazopyr and other pyridine herbicides” (Monsanto Company, priority 1999, dated 2000)

Assays:
pyridine-esterase = type: biochemical, rabbit
Procedure: (§1) Esterase activity assays. Esterase activity was measured in vitro by conversion of either [^14 C]thiazopyr or [^14 C]MON 14300 to their corresponding monoacid. Pyridine-esterase activity was assayed during protein purification and from tissue extracts of transgenic plants. The homogenizing buffer for plant tissues consisted of 100 mM Tris pH 8.0, 1 mM EDTA, 1 mM DTT, and 10% glycerol in water. Plant tissues (1 g/ml buffer) including leaves, seeds, flowers, seedlings, etc. were homogenized in conical centrifuge tubes using a spinning pestle at 4° C. Following centrifugation (12,000× g), the supernatant (250 μl) was assayed immediately for esterase activity by incubation with [^14 C]thiazopyr or [^14 C]MON 14300 (4 μg) in 0.1 M Tris pH 8.0 buffer (50 μl) at 37° C. The reaction was sampled (100 μL) at various times (0.5 to 100 hr) to generate a kinetic profile of monoacid formation. The reaction was stopped by addition of 1% trifluoroacetic acid in acetonitrile (v/v, 150 μl). Following centrifugation (12,000× g for 3 min), the supernatant was analyzed by HPLC/RAD (radioactivity detection) to resolve the monoacid from the parent herbicide and other metabolites. Control reactions in the absence of the esterase recovered un-reacted thiazopyr or MON 14300 for the duration of experiments. Esterase activity was also assayed during protein purification following a similar procedure except a single time-point (1-2 hrs) of incubation was selected within the linear range of reaction. In vitro assays also employed three commonly used calorimetric (p-nitrophenyl butyrate) or fluorescent (4-methyl umbelliferyl butyrate and 5-bromo-4-chloro-3-indolylacetate) substrates. These substrates are useful in rapidly and qualitatively detecting general esterase activity.
Tissue extracts from 3 tobacco R1 seedlings were employed for further studies. Two of the lines (#37437 and #37432) expressed high levels of esterase (~0.5%) and one line (#37436) which expressed no pyridine-esterase was used as negative control. Tissue extracts were incubated with [^14 C]MON 14300 and formation of the monoacid monitored with time. […] In comparison, less that 2% monoacid was detected in line (#37436). […] First, pyridine-esterase was capable of driving the hydrolysis reaction to completion with no apparent product inhibition, and second, there was no endogenous esterase activity in tobacco which catalyzed MON 14300 hydrolysis.

tomato seedlings = details: in vivo
Procedure: Esterase activity was also monitored in plants. [^14 C]Thiazopyr or [^14 C]MON 14300 (1-4 μg in acetonitrile) was applied directly to shoots and cotyledons of young seedlings. After 2 days in a growth chamber, tobacco or tomato seedlings were washed with methanol and water, then homogenized (TISSUMIZER™, Tekmar-Dohrmann, Cincinnatti, Ohio) in 5% (v/v) trifluoroacetic acid in acetonitrile (fresh w/v ratio of 2/1). Homogenates were clarified by centrifugation (12,000× g) and supernatants analyzed by HPLC/RAD for the formation of the monoacid metabolite.
MON 14300 was applied to the shoot of 2-day old seedlings. Two days after treatment, seedlings were washed with methanol and tissue extracts analyzed by HPLC. The HPLC chromatograms show signals from both the UV254 nm (upper trace, FIG. 5) and radioactivity (lower trace, FIG. 5) detectors. For the purpose of metabolite identification, plant extracts were co-injected with a mixture of authentic standards visible under UV detection. […] In both transgenic lines, small levels of more polar products, presumably from further degradation of the monoacid as reported by McClanahan et al. (1995), were detected near the solvent front.

tomato = assay: Greenhouse test, pre-plant incorporation (PPI); type: in vivo; details: 21 DAT
Procedure: Green house test for tomato resistance. Similar studies were also conducted in greenhouse with pre-plant incorporation (PPI) of thiazopyr into the soil. During pre-emergence application of thiazopyr, it is possible that cracks in soil may allow seedlings to escape from exposure to thiazopyr that was sprayed on the soil surface. One way to prevent such escapes is to apply thiazopyr with pre-plant incorporation (PPI). In this method of application, thiazopyr is first incorporated into the soil and seeds are sowed directly into that soil. PPI application of thiazopyr can cause the most plant injury and therefore require lower rates of thiazopyr application.
Tomato seeds were planted in 100 cm^2 pots filled with a sterilized silty loam soil (510 g). Seeds were placed on top of soil, and covered with additional soil (135 g) which was premixed with thiazopyr at equivalent use rates of 0, 34, 45, 67, and 140 g/ha. Greenhouse growing conditions were: 29° C. day to 21° C. night with supplemental lighting as needed to maintain 200-900 μE.
In order to be certain that tomato resistance to thiazopyr in the above PE experiment was not due to escapes, a further experiment in the greenhouse using conducted using PPI application. Plants were visually rated at 21 days after treatment (DAT) based on comparison of % growth to untreated plants, and the results are presented in the bar chart in FIG. 6. […] At the 45 g/ha rate, UC82B was severely injured (10% growth) and the transgenics lines minimally injured (90% growth). At the 67 g/ha rate, UC82B plants were dead and the transgenics were stunted at 40 to 50% growth. […] Both #8255 and #8230 lines expressed the pyridine-esterase at 0.05% of total protein. The term `resistance` in all of these examples can also be expressed as a recombinantly acquired tolerance to the applied levels or rates of pyridine herbicide.

RLE1 = biological target: T1, RLE1 (Oryctolagus cuniculus, UniProt P12337); assay: Thiazopyr hydrolysis by RLE1 preparation from Prof. Ozols; type: biochemical, rabbit; details: purified RLE1 preparation from Prof. Ozols
T1 construct: tissue Professor J. Ozols; host or cells: rabbit liver
T1 sequence (P12337 19-565): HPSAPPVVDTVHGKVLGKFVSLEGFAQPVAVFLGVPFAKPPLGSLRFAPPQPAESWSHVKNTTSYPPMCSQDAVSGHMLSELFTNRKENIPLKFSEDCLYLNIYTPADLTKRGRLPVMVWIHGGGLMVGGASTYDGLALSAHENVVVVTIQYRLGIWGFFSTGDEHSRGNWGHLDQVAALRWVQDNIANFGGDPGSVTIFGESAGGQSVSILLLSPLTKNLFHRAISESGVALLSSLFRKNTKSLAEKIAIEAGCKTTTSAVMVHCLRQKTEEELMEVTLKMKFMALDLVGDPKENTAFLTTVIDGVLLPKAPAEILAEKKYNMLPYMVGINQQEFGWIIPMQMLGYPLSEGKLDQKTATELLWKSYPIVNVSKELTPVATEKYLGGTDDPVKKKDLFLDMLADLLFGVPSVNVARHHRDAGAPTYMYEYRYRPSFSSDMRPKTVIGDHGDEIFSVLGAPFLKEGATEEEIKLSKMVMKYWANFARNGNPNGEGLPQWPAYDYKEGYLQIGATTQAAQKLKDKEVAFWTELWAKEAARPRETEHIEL
Procedure: as §1, with “Esterase activity was also assayed during protein purification following a similar procedure except a single time-point (1-2 hrs) of incubation was selected within the linear range of reaction. In vitro assays also employed three commonly used calorimetric (p-nitrophenyl butyrate) or fluorescent (4-methyl umbelliferyl butyrate and 5-bromo-4-chloro-3-indolylacetate) substrates. These substrates are useful in rapidly and qualitatively detecting general esterase activity.” left out

Structure (SMILES)	hydrolysis to monoacid metabolite (pyridine-esterase; non-expressing line #37436, FIG. 3)	monoacid detected (pyridine-esterase; tobacco, seedling tissue extract) [%]	metabolism in plants (tomato seedlings)	monoacid in residue (tomato seedlings; tomato, 48 h) [%]	parent as primary residue (tomato seedlings; tomato, 48 h) [%]	% growth compared to untreated plants (tomato; UC82B control, 34 g/ha PPI) [%]	% growth compared to untreated plants (tomato; UC82B control, 45 g/ha PPI) [%]	plant condition (tomato; UC82B control, 67 g/ha PPI)	% growth compared to untreated plants (tomato; transgenic #8255 and #8230, 34 g/ha PPI) [%]	% growth compared to untreated plants (tomato; transgenic #8255 and #8230, 45 g/ha PPI) [%]	thiazopyr hydrolytic activity (RLE1)	thiazopyr hydrolytic activity (RLE1; listed as Thiazopyr)
COC(=O)c1c(C(F)F)nc(C(F)(F)F)c(C(=O)n2cccn2)c1CC(C)C [MON 14300]	no hydrolysis	< 2	little to no metabolism in plants	2.5	90.8							
COC(=O)c1c(C(F)F)nc(C(F)(F)F)c(C2=NCCS2)c1CC(C)C [thiazopyr]						75	10	dead	100	90	demonstrated thiazopyr hydrolysis	could be demonstrated with RLE1
